What follows are compounds tested against T1, Ephrin type-B receptor 4 (Homo sapiens, UniProt P54760) (assay: EphB4-ephrin-B2 interaction antagonists, dose response, biochemical, TNYL-RAW peptide displacement (AID 835)). Conditions: not given.
T1 sequence (P54760 whole entry): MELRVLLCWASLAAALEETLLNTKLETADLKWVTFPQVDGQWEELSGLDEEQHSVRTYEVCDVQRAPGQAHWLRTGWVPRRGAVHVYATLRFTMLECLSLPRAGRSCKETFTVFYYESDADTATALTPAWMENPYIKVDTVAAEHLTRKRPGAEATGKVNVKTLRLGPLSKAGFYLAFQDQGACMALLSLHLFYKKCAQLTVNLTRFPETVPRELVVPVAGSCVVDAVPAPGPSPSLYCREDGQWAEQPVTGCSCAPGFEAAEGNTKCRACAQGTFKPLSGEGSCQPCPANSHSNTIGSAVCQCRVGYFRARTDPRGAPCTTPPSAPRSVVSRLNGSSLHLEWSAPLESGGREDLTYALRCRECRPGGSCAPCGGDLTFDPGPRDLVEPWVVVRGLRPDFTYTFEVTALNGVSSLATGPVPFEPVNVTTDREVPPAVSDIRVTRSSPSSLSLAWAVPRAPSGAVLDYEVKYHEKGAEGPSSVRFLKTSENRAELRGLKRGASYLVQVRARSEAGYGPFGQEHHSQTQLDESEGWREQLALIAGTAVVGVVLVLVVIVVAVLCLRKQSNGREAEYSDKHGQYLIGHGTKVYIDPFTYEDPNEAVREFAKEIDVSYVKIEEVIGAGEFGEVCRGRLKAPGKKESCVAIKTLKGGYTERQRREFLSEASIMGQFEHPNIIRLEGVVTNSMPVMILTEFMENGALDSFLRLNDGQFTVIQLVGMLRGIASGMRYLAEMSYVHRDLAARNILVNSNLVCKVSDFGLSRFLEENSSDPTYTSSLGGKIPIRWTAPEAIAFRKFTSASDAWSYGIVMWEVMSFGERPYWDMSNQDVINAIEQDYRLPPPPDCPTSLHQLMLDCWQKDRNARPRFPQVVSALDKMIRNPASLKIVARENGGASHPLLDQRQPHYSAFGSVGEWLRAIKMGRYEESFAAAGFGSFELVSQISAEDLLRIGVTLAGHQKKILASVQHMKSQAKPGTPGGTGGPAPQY

Structure (SMILES)	IC50 [µM]
CCCc1[nH]nc2c1C(c1ccc(OC)c(Cn3nnc4ccccc43)c1)C(C#N)C(=N)O2 (stereo not drawn)	> 79.4
O=C1CCCc2c1[nH]c1ccccc21	> 79.4
CC(C)CCn1c(SCCN2CCOCC2)nc2c1c(=O)[nH]c(=O)n2C	> 79.4
CCOc1cccc(-n2c(O)cc(=O)[nH]c2=O)c1	> 79.4
CC(C)(C)C1CCC2(CC1)SCC(=O)N2c1ccccc1 (stereo not drawn)	> 79.4
CCN1C(=O)C(=CNc2ccc(N3CCOCC3)cc2)C(=O)N(CC)C1=S	> 79.4
Cc1ccc(Cn2c(SCCN3CCCCC3)nc3c2c(=O)n(C)c(=O)n3C)cc1 [1,3-Dimethyl-7-(4-methyl-benzyl)-8-(2-piperidin-1-yl-ethylsulfanyl)-3,7-dihydro-purine-2,6-dione]	> 79.4
Cn1cc(S(=O)(=O)N2CCN(c3ccccc3)CC2)c(=O)n(C)c1=O [1,3-dimethyl-5-(4-phenylpiperazin-1-yl)sulfonyl-pyrimidine-2,4-dione]	> 79.4
C=CCn1c(NCCc2ccccc2)nc2c1c(=O)n(C)c(=O)n2C [1,3-dimethyl-8-(2-phenylethylamino)-7-prop-2-enyl-purine-2,6-dione]	> 79.4
O=C(c1ccc(COc2ccccc2Cl)o1)N1CCN(Cc2ccc3c(c2)OCO3)CC1 [1-(1,3-benzodioxol-5-ylmethyl)-4-{5-[(2-chlorophenoxy)methyl]-2-furoyl}piperazine]	> 79.4
Cn1c(=O)c(NCCO)c2c3c(cccc31)C(=O)c1ccccc1-2 [1-(2-Hydroxy-ethylamino)-3-methyl-3H-naphtho[1,2,3-de]quinoline-2,7-dione]	8.4
CC(=O)c1ccc(-n2nnnc2SCC(=O)N2CCc3ccccc3C2)cc1 [1-(3,4-dihydro-1H-isoquinolin-2-yl)-2-[[1-(4-ethanoylphenyl)-1,2,3,4-tetrazol-5-yl]sulfanyl]ethanone]	> 79.4
Cc1ccc(N2C(=O)C(O)(C(F)(F)F)C3=C2CC(C)(C)CC3=O)cc1C (stereo not drawn) [1-(3,4-dimethylphenyl)-3-hydroxy-6,6-dimethyl-3-(trifluoromethyl)-3,5,6,7-tetrahydro-1H-indole-2,4-dione]	> 79.4
CCOC(=O)c1sc2nc(C)c3c(c2c1N)CC(C)(C)OC3 [1-Amino-5,8,8-trimethyl-8,9-dihydro-6H-7-oxa-3-thia-4-aza-cyclopenta[a]naphthalene-2-carboxylic acid ethyl ester]	> 79.4
COCCn1c(C)cc(C(=O)COc2nc3ccccc3nc2C)c1C [1-[1-(2-methoxyethyl)-2,5-dimethyl-3-pyrrolyl]-2-[(3-methyl-2-quinoxalinyl)oxy]ethanone]	> 79.4
Cc1cc(C(=O)CSc2nnc(Nc3ccccc3F)s2)c(C)n1CC1CCCO1 (stereo not drawn) [1-[2,5-dimethyl-1-(2-oxolanylmethyl)-3-pyrrolyl]-2-[[5-(2-fluoroanilino)-1,3,4-thiadiazol-2-yl]thio]ethanone]	> 79.4
CC(=O)c1ccc(N2CCN(C(=O)c3ccc(Br)cc3)CC2)c(F)c1 [1-[4-[4-(4-bromobenzoyl)piperazin-1-yl]-3-fluorophenyl]ethanone]	> 79.4
CCOC(=O)C1CCN(S(=O)(=O)Cc2ccccc2)C1=O (stereo not drawn) [1-benzylsulfonyl-2-keto-pyrrolidine-3-carboxylic acid ethyl ester]	> 79.4
CC(c1ccccc1)C1CC(=O)N(C2CCCCC2)C1=O (stereo not drawn) [1-cyclohexyl-3-(1-phenylethyl)-2,5-pyrrolidinedione]	> 79.4
c1coc(-c2nc(-c3ccco3)c(-c3ccco3)nc2-c2ccco2)c1 [2,3,5,6-tetrakis(2-furanyl)pyrazine]	> 79.4
O=C(Nc1cccnc1)C1COc2ccccc2O1 (stereo not drawn) [2,3-Dihydro-benzo[1,4]dioxine-2-carboxylic acid pyridin-3-ylamide]	> 79.4

Same assay, conditions: inactive by the depositor's call

Structure (SMILES)	IC50 [µM]
CCNc1c2c3c(cccc3n(C)c1=O)C(=O)c1ccccc1-2 [1-(ethylamino)-3-methyl-3H-naphtho[1,2,3-de]quinoline-2,7-dione]	25.7
CCn1c(CSc2nnc3ccccn23)nc2cc(C(=O)O)ccc21 [1-ethyl-2-[([1,2,4]triazolo[4,3-a]pyridin-3-ylthio)methyl]-5-benzimidazolecarboxylic acid]	20.4

Source: BindingDB's records for doi:10.7270/Q2KP80J0 (The Scripps Research Institute Molecular Screening Center, 2007)
